From article PMC5706701, “Development of a homogenous high-throughput assay for inositol hexakisphosphate kinase 1 activity” (PLoS ONE, 2017)
“Also recorded” adds a separate entry of the source. Where a name gives a salt, the structure may show the parent alone. Read-outs that look alike come from different tables or passages of the source.

Experiments:
[1] = system: enzymes involved in the detection steps of the kit; assay: Counter-screen against the detection steps of the ADP-Glo Max kit (no enzyme, no IP6); format: biochemical; conditions: 10μM compound, 25μM ADP and 975μM ATP
Procedure: The Sigma LOPAC was obtained as 10mM DMSO stock solutions from the Johns Hopkins ChemCore facility. Each compound was first diluted to 50μM and 25% DMSO in assay buffer. The inhibition assay was performed as described above with 1μL of compound and 4μL of kinase master mix so that the final compound concentration was 10μM in 5% DMSO. […] Hits were determined based by the Z score, which is calculated as Z = (Xi-Xavg)/Sx, where Xi is the raw measurement on the i^th compound, Xavg and Sx are the mean and the standard deviation, respectively, of all measurements within the plate. Hits identified from the screen were repeated in the assay in quadruplicate for confirmation. These confirmed hits were then tested to determine if they inhibited the enzymes involved in the detection steps of the kit. Possible interference of the compounds was assessed by measuring the degree to which they inhibited the signal produced by a 25μM ADP in the presence of 975μM ATP. This experiment was run as described above for the inhibition assays in the absence of enzyme and IP6.

Human IP6K1 [2] = target: T1, Human IP6K1 (Homo sapiens, UniProt Q92551); assay: IP6K1 high-throughput screen of the Sigma LOPAC (ADP-Glo Max, single point); format: biochemical; conditions: for Raw Signal / Z-score: LOPAC single-point screen
T1 construct: GST (N, cleaved yes); made in house; host or cells: C43 E. coli, pGEX-6P-2

human IP6K2 = target: T2, human IP6K2 (Homo sapiens, UniProt Q9UHH9); assay: IP6K2 inhibition dose-response assay (ADP-Glo Max); format: biochemical
T2 construct: GST (N, cleaved yes); made in house; host or cells: C43 E. coli, pGEX-6P-2
T2 sequence (Q9UHH9 1-426): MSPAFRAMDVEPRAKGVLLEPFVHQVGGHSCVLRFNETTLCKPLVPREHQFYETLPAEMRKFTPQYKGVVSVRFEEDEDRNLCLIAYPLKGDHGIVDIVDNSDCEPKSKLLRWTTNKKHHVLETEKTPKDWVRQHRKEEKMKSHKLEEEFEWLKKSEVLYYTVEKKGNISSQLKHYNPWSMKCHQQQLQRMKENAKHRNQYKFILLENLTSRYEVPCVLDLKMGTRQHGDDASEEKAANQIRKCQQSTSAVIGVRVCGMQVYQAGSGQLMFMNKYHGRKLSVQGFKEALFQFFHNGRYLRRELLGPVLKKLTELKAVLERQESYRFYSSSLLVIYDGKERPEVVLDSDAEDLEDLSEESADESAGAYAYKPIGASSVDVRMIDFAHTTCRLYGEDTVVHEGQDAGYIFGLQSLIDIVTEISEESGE
Procedure: (§1) Human IP6K1 (NCBI accession# Q92551), human IP6K2 (NCBI accession# Q9UHH9), and human IP6K3 (NCBI accession# Q96PC2) were purified from C43 E. coli transformed with pGEX-6P-2 expression vector containing GST tagged IP6K1, IP6K2, or IP6K3. The bacteria were grown overnight in a starter culture containing LB (Lennox) and 100μg/mL ampicillin (Sigma). The starter culture was diluted 1:100 into LB (Lennox) and allowed to grow to an optical density of 0.8 at 37°C when protein expression was induced with 1mM IPTG (Calbiochem) for 5hrs. The cells were pelleted with 3000RCF at 4°C and frozen at -80°C. Later, the bacteria was re-suspended in lysis buffer (20mM Tris, 200mM NaCl, 5mM DTT, 1% Triton-X, 0.5% IPEGAL, 1mg/mL lysozyme, and 1 protease inhibitor tablet (Sigma) per 100mL buffer, pH 7.4) and rotated on an end over end shaker for 30 min at 4°C followed by sonication. […]
(§2) For the dose response assays, 7–10 serial 3-fold compound dilutions were prepared in DMSO and then each compound was diluted with assay buffer (50mM Tris, 10mM MgCl2, 2.5mM DTT, 0.02% Triton X-100, pH 6.9) to reach the desired inhibitor concentrations in 25% DMSO. […] Luminescence generated was read on a Tecan Infinite M100 Pro plate reader. Samples were run in quadruplicate and the data was analyzed using a […] variable slope inhibition parameter on GraphPad Prism 7. […]

human IP6K3 = target: T3, human IP6K3 (Homo sapiens, UniProt Q96PC2); assay: IP6K3 inhibition dose-response assay (ADP-Glo Max); format: biochemical
T3 construct: GST (N, cleaved yes); made in house; host or cells: C43 E. coli, pGEX-6P-2
T3 sequence (Q96PC2 1-410): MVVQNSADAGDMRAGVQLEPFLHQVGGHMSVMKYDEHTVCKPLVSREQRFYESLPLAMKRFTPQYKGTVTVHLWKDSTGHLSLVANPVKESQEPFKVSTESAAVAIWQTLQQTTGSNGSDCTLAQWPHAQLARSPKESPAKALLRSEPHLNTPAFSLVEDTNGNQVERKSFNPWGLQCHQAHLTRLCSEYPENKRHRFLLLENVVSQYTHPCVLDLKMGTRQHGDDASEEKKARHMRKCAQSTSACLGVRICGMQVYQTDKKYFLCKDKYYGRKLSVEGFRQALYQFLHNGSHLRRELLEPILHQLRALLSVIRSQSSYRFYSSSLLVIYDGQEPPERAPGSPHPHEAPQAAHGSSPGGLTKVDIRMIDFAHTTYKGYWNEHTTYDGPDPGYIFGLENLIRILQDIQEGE
Procedure: as §1, §2

IP6K1 = system: IP6K1; design: method as in PMID 8633060; conditions: 3H-PP-IP5 production with 3H-IP6 as substrate; read-out: Km of ATP for IP6K1; cited from earlier work
Human IP6K1 [3] = target: T1, Human IP6K1; assay: IP6K1 kinetic assay (ADP-Glo Max, Michaelis-Menten); format: biochemical; conditions: 400μM IP6, ATP 31.25μM to 2mM, 15ng IP6K1, 15 minutes
Procedure: IP6K1 activity was measured using the ADP-Glo Max kit (Promega). […] Reactions were quenched with 5μL of Promega ADP-Glo reagent to deplete the remaining ATP at the corresponding time points and incubated for 1hr at room temperature in the dark. […] Luminescence was detected with a Tecan Infinite […] plate reader. The amount of ADP produced by IP6K1 was determined by correlating the observed luminescence to a luminescence signal standard curve generated from various concentrations of ADP. A new standard curve was generated for each concentration of ATP tested such that the total amount of nucleotides (ATP+ADP) at every point on the curve was equal to the concentration of ATP used in the experiment. Standard curves typically began with 100μM or 50μM ADP and were serially 2-fold diluted 8 times. […] Nonlinear regressions and curve fitting to the Michaelis-Menten equation were performed in GraphPad Prism 7. […] The ADP production at […] was measured. The initial reaction velocity (V0) was calculated and plotted with each ATP condition. GraphPad Prism 7 was used to run the non-linear regression and fit the data to the Michaelis-Menten equation. […] The Michaelis-Menten constants when IP6 is the varied substrate were unable to be determined.

Human IP6K1 [4] = target: T1, Human IP6K1; assay: Inositol polyphosphate separation by PAGE (5PP-IP5 production by IP6K1); format: biochemical; conditions: 10μM inhibitor, 1mM ATP, 250μM IP6, 60nM IP6K1, 2 hours, 37°C
Human IP6K1 [5] = target: T1, Human IP6K1; assay: IP6K1 inhibition dose-response assay (ADP-Glo Max); format: biochemical
DIO mice = system: DIO mice; design: method as in PMID 27689003; conditions: DIO model, mice treated with TNP; cited from earlier work
[6] = cited from earlier work
[7] = cited from earlier work; remark: listed apart in the source
[8] = ADP-Glo Max luminescence raw signal per well
[9] = ADP-Glo Max raw signal per well
[10] = Z-score from raw signal with plate average and StDev

T1 sequence (Q92551 whole entry): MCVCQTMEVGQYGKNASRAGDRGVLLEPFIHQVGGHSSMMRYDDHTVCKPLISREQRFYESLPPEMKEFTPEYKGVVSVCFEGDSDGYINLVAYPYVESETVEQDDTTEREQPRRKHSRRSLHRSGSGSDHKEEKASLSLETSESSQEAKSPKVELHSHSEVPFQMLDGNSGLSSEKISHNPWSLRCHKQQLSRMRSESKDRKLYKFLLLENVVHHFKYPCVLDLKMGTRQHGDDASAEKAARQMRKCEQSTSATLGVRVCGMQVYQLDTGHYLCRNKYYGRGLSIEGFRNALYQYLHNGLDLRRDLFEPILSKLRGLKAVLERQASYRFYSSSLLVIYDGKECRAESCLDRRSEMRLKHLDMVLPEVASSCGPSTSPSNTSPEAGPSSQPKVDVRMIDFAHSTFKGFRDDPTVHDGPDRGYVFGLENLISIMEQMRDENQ

O=c1c(O)c(-c2cc(O)c(O)c(O)c2)oc2cc(O)cc(O)c12 [Myricetin]
Signal loss in counter-screen of detection steps [1]: significantly inhibit the secondary reagents | Raw Signal (Human IP6K1 [2]; [8]): 8540 | Inhibition of enzyme activity in initial LOPAC screen (Human IP6K1 [2]; single point 100μM compound, 62.5μM ATP): 100% | IC50 (human IP6K2; 1mM ATP, 100μM IP6, 7.5nM IP6K2, 30 minutes, 37°C, read-out: IC50 IP6K2): 23.4 ± 1.1 µM | IC50 (human IP6K3; 1mM ATP, 100μM IP6, 120nM IP6K3, 120 minutes, 37°C, read-out: IC50 IP6K3): 4.93 ± 1.14 µM

Nc1ncnc2c1ncn2[C@@H]1O[C@H](COP(=O)(O)OP(=O)(O)OP(=O)(O)O)[C@@H](O)[C@H]1O [ATP]
Km (IP6K1): 1000 µM | Km (Human IP6K1 [3]): 382 ± 44 µM | Vmax for ATP (Human IP6K1 [3]): 1116 ± 41 nmol/min/mg

NC(Cc1cc(O)c(O)cc1O)C(=O)O (racemic) [6-Hydroxy-DL-Dopa]
Signal loss in counter-screen of detection steps [1]: neither TNP nor 6-Hydroxy-DL-Dopa showed significant signal loss | Raw Signal (Human IP6K1 [2]; [8]): 10170 | Z-score (Human IP6K1 [2]; Z-score relative to plate average and StDev): -9.138 | Inhibition of 5PP-IP5 production by IP6K1 (PAGE, Toluidine Blue) (Human IP6K1 [4]): inhibited below the limit of detection | IC50 (human IP6K2): 1.66 ± 1.06 µM | IC50 (Human IP6K1 [5]): 1.84 ± 1.03 µM | IC50 (human IP6K3): 11.1 ± 1.13 µM

O=[N+]([O-])c1ccc(CNc2nc(NCc3cccc(C(F)(F)F)c3)nc3nc[nH]c23)cc1 [TNP, N2-(m-trifluorobenzyl), N6-(p-nitrobenzyl)purine]
Performance in insulin and glucose tolerance tests (DIO mice): better performance in insulin and glucose tolerance tests | Signal loss in counter-screen of detection steps [1]: neither TNP nor 6-Hydroxy-DL-Dopa showed significant signal loss | Inhibition of 5PP-IP5 production by IP6K1 (PAGE, Toluidine Blue) (Human IP6K1 [4]): inhibit 5PP-IP5 production in this experiment at 10μM albeit to a lesser degree | Pharmacokinetic properties [6]: poor pharmacokinetic properties | Brain penetration ([6]; in vivo): low brain penetration | Solubility in aqueous media [7]: insolubility in aqueous media | IC50 (Human IP6K1 [5]; 50μM IP6, 300μM ATP, 60nM IP6K1, 15 minutes, read-out: IC50 IP6K1): 24 ± 1.5 µM | IC50 (Human IP6K1 [5]; 62.5μM ATP, 400μM IP6, 60nM IP6K1, 30 minutes, 37°C, read-out: IC50 IP6K1): 12 ± 1.1 µM | IC50 (Human IP6K1 [5]; 100μM IP6, 300μM ATP, 60nM IP6K1, 15 minutes, read-out: IC50 IP6K1): 20 ± 4.5 µM | IC50 (Human IP6K1 [5]; 200μM IP6, 300μM ATP, 60nM IP6K1, 15 minutes, read-out: IC50 IP6K1): 21 ± 1.8 µM | IC50 (Human IP6K1 [5]; 250μM ATP, 400μM IP6, 60nM IP6K1, 30 minutes, 37°C, read-out: IC50 IP6K1): 16 ± 1.1 µM | IC50 (Human IP6K1 [5]; 400μM IP6, 300μM ATP, 60nM IP6K1, 15 minutes, read-out: IC50 IP6K1): 9.5 ± 1.5 µM | IC50 (Human IP6K1 [5]; 2mM ATP, 400μM IP6, 60nM IP6K1, 30 minutes, 37°C, read-out: IC50 IP6K1): 39 ± 1.1 µM | Mode of inhibition of IP6K1 (Human IP6K1 [5]; from IC50 shift with ATP or IP6 concentration): ATP competitive inhibitor; also recorded: IP6 is not competitive with TNP

NC(=O)c1cccc(N)c1 [3-aminobenzamide]
Raw Signal (Human IP6K1 [2]; [9]): 56496 | Z-score (Human IP6K1 [2]; [10]): -0.2496

COc1cc2nc(N3CCN(C(=O)c4ccco4)CC3)nc(N)c2cc1OC [Prazosin hydrochloride]
Raw Signal (Human IP6K1 [2]; [9]): 56945 | Z-score (Human IP6K1 [2]; Z-score against plate average and StDev): 0.179

CC(C)N(CCC(C(N)=O)(c1ccccc1)c1ccccn1)C(C)C (centres unmarked) [Disopyramide phosphate]
Raw Signal (Human IP6K1 [2]; [9]): 54365 | Z-score (Human IP6K1 [2]; [10]): -0.1629
